From publication PMC11249626, “Fluorophore-Labeled Pyrrolones Targeting the Intracellular Allosteric Binding Site of the Chemokine Receptor CCR1” (ACS Pharmacology & Translational Science, 2024)
Like-named read-outs stand apart in the source and are kept apart here.

How the values were obtained:
CCR1 [1] = target: T1, CCR1 (Homo sapiens, UniProt P32246); assay: Membrane-based radioligand binding assay with [3H]-CCR2-RA-[R], U2OS membranes; settings: for Ki: [3H]CCR2-RA-[R] 6 nM, 25 °C
T1 sequence (P32246 1-355): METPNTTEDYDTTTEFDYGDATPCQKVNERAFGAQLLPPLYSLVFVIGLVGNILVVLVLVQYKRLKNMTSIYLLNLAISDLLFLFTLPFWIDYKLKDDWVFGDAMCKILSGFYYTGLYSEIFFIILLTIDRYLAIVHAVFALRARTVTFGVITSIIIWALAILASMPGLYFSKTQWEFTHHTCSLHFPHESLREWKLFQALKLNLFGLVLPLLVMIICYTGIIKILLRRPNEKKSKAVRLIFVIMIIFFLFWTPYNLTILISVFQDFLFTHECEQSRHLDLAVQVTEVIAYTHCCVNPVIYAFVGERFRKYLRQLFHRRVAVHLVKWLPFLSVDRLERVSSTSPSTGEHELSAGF
Experimental: (§1) Membrane-based radioligand binding assays: Assays were performed according to the published protocol.13 Radioligand binding assays were performed in a 100 µ L reaction volume containing varying concentrations (final concentrations: 0.001 – 10 µM) of compounds 23 and 5, 6 nM [3H]-CCR2-RA-[R] (specific activity 60.6 Ci mmol-1, custom labeled by Vitrax in Placentia, CA, USA), and 15 µg membrane protein, all diluted in assay buffer (50mM Tris-HCl, 5 mM MgCl2, 0.1% CHAPS, at pH 7.4). Membranes were obtained from Tango™ CCR1-bla or Tango™ CCR2-bla osteosarcoma (U2OS) cells stably expressing the human CCR1 ([…]) or human CCR2b (U2OS-CCR2) cells (Invitrogen, Carlsbad, CA, USA). Total binding was determined in the absence of competing ligand, while non -specific binding was determined in the presence of 10 µM CCR2-RA-[R]. After membrane addition, reaction mixtures were incubated for 2 h at 25 °C while shaking. After 2 h, reactions were terminated by harvesting through a 96 -well GF/C filter plate using a PerkinElmer Filtermate harvester (PerkinElmer, Groningen, NL) and ice -cold wash buffer (50mM Tris-HCl, 5 mM MgCl2, 0.1% CHAPS, at pH 7.4). Afterwards, filter plate was dried, and radioactivity was measured in a P-E-2450 Microbeta2 scintillation plate counter (PerkinElmer, Groningen, NL) after addition of 25 µL of Microscint scintillation cocktail (PerkinElmer, Groningen, NL). […]
(§2) Technologies) for 20 min. […]
(§3) Finally, the top 5% of the identified hits were subsequently docked to a homology model of CCR1 (vide infra). After visual examination of the obtained binding modes 24 hit compounds were identified for further investigation .
(§4) Molecular docking: For the docking studies in the course of our virtual screening campaign, the CCR1 protein was […]
(§5) 27, 28 CCR1 structure was optimized using the Quickprep and structure preparation wizard in MOE 24 using CHARMM27 forcefield. The protein was saved in mol2 format and loaded in GOLD.25, 26 The amino acids defining the IABS were listed in a text file to define the docking cavity. 50 GA runs were performed for docking CCR2-RA-[R] (4-[R]) and SN_12 (43), with the generated solutions clustered based on their RMSD with the threshold set to 0.75 Å using the complete linkage method. Docking runs were performed using ChemScore. Flexibility of amino acids Lys63ICL1, Arg1313.50, Leu2406.36 and Arg3078.49 was taken in consideration in the docking runs, with conformational sampling of their side chains being done by the rotamer libraries implemented in GOLD.25, 26 For the docking studies with our ligand-linker conjugates (Figure S1), molecular ligand structures were geometry optimized as neutral molecules by means of Avogadro (Version 1.2.0)29 using the Universal Force Field (UFF) and the Steepest Decent Algorithm until convergence (ΔE = 0).
(§6) CCR113 was used for docking. The compounds were docked by means of AutoDock Vina 1.1.2.30, 31 An exhaustiveness value of 8 and a search space of 22 x 22 x 22 Å³ was applied around the unliganded intracellular allosteric binding site of CCR1. Twenty docking poses were generated for each ligand and inspected manually and according to the docking score.

human CCR2b = target: T2, human CCR2b (Homo sapiens, UniProt P41597); assay: as above; settings: [3H]CCR2-RA-[R] 6 nM, 25 °C
T2 sequence (P41597 1-360 isoform P41597-2): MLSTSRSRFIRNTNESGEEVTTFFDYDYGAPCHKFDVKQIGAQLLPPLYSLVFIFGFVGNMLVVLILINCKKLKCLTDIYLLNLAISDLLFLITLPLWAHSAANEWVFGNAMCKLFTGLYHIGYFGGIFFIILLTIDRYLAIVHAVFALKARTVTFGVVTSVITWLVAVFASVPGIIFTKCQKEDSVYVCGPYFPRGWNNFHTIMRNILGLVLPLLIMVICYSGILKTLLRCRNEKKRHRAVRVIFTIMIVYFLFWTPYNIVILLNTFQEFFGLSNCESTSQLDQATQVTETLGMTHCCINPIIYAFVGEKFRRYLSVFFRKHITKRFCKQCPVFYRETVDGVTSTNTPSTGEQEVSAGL
Experimental: as §1, §2, §3, §4, §5, §6

CCR1 [2] = target: T1, CCR1; assay: Live cell NanoBRET binding assay, HEK293T cells expressing CCR1_Nluc; design: Promega pNLF1-C (Nluc) #CCR010TN00; host or cells: HEK293T, transient (PEI); settings: for Ki: 12 (1000 nM), live HEK293T cells
[3] = read-out: Ki, CCR1 (radioligand)
[4] = read-out: Ki, CCR2 (radioligand)

Row | Structure (SMILES) | CCR1 over CCR2 binding selectivity (radioligand) (CCR1 [1]) [fold] | Ki (CCR1 [1]; [3]) [nM] | Ki (human CCR2b; [4]) [nM] | Ki (CCR1 [2]; read-out: Ki, live cells) [nM] | Ki (CCR1 [2]; read-out: pKi ± SEM, live cells (converted)) [nM] | Ki (CCR1 [1]; read-out: pKi, CCR1 (radioligand) (converted)) [nM] | Ki (human CCR2b; read-out: pKi, CCR2 (radioligand) (converted)) [nM] | Kd (CCR1 [2]; live HEK293T cells expressing CCR1_Nluc) [nM]
1 | O=C(C1=C(O)C(=O)N(CCc2ccc(O)cc2)C1c1ccc(F)cc1)c1ccccc1 (racemic) [compound 23] | 33 | 117 | 3820 | 235 | 229 | – | – | –
2 | CC(=O)C1=C(O)C(=O)N(c2ccc(Br)cc2F)C1C1CCCCC1 (centres unmarked) [compound 5, reference compound] | – | 18 | 9 | 24.2 | – | 15.8 | 7.94 | –
3 | CN(C)c1ccc2c(-c3cc(C(=O)NCCOCCOCc4cn(CCCC(=O)C5=C(O)C(=O)N(c6ccc(Br)cc6F)C5C5CCCCC5)nn4)ccc3C(=O)[O-])c3ccc(=[N+](C)C)cc-3oc2c1 (centres unmarked) [compound 12] | – | – | – | – | – | – | – | 505 ± 93
